Test results: patent publication US11083732B2, “Use of negative modulators of GABA receptors containing alpha5 subunits as fast acting antidepressants” (University of Maryland, Baltimore, priority 2014, dated 2021)

Legend:
[1] = tested on: rats subjected to chronic restraint stress; assay: Sucrose preference test (SPT) after chronic restraint stress (CRS); type: in vivo, rat; conditions: MRK-016 3 mg/kg
Excerpt: (§1) MRK-016 rapidly reverses loss of sucrose preference and social interaction behaviors after chronic restraint stress (FIG. 9). […] This persisted for 7 days despite further stress exposure. and in the same animals after an additional week of CRS and 7 days after the injection of MRK-016.
(§2) Chronic restraint stress (CRS). Male Sprague Dawley rats (4-5 weeks-old; Harlan Laboratories) were placed in appropriately sized restraint tubes, highly restricting their movement for periods of four hours in a brightly lit lab, every day for ten days during the light phase of their diurnal cycle (Lim et al., 2012).
Sucrose preference test (SPT). Rats were given a choice between two bottles containing tap water or a 1% sucrose solution (Rygula et al., 2006). Testing was conducted overnight (16 hours), including the full duration of their dark phase. Animals were first trained with both bottles while group-housed. For subsequent tests, including during the baseline period, animals were individually housed. Sucrose preference was calculated as amount of the sucrose solution consumed as a percentage of the total amount of liquid consumed.
Drugs/stats. L-655,708 was purchased from Tocris Bioscience (R&D Systems, Minneapolis, Minn.) and prepared at a concentration of 5 mM in 75% saline/25% DMSO. […] This dose is sufficient to occupy about 70% of forebrain binding sites (Atack et al., 2005)
Several hedonic behaviors in rodents are sensitive to chronic stress and are restored by chronic, but not acute, administration of SSRIs, providing one means to screen for potential antidepressant compounds. First, it was determined whether L-655,708 would rapidly (<24 hrs) restore normal hedonic behavior following chronic restraint stress (Watanabe et al., 1992; Lim et al., 2012), consistent with the rapid antidepressant-like actions of ketamine (Li et al., 2011). Baseline measurements were first made of social interaction and sucrose preference, and then 4-5 week old rats were subjected to ten days of CRS. […]

[2] = tested on: rats subjected to chronic restraint stress; assay: Social interaction test (SIT) after chronic restraint stress (CRS); type: in vivo, rat; conditions: MRK-016 3 mg/kg
Excerpt: as §1, §2
Social interaction test (SIT). As described previously (Berton et al., 2006), rats were placed in a plastic enclosure (82×82 cm) with a 5×5 grid of squares (16.4×16.4 cm) visible underneath the clear plastic flooring. A small translucent perforated plastic box (20×16 cm) was placed against the center of one wall of the arena. During the testing conditions white overhead fluorescent lighting was used to illuminate the arena. A video camera positioned 170 cm above the floor of the arena was used to track the movements of the rats during the experiment.
Each test consisted of a “target-absent” trial followed by a “target-present” trial. During testing, an individual test rat was placed in the center of the arena and, after 30s of adaptation, the rat's movements were recorded with the video camera for 2.5 minutes. […]
Results were quantified as the percentage of time spent in the “interaction zone” (the five grid squares immediately surrounding the plastic cage) as measured for both the “target-absent” and “target-present” trials. […]
Several hedonic behaviors in rodents are sensitive to chronic stress and are restored by chronic, but not acute, administration of SSRIs, providing one means to screen for potential antidepressant compounds. First, it was determined whether L-655,708 would rapidly (<24 hrs) restore normal hedonic behavior following chronic restraint stress (Watanabe et al., 1992; Lim et al., 2012), consistent with the rapid antidepressant-like actions of ketamine (Li et al., 2011). […]

[3] = tested on: chronically stressed animals; conditions: Li et al., 2011; cited from earlier work
[4] = tested on: depressive symptoms in humans; conditions: acute administration; cited from earlier work
TA-CA1 synapses = assay: Anpirtoline (5-HT1BR agonist) potentiation of TA-CA1 EPSP slope in hippocampal slices; set-up: species or system rat; conditions: slices after CUS
Protocol: Experiment B. Do alpha5 GABA-NAMs restore 5-HT1BR-mediated potentiation? One can consider whether alpha5 GABA-NAMs reverse another phenotypic alteration of stressed TA-CA 1 synapses: amplification and persistence of responses to the 5-HT1BR agonist anpirtoline (FIG. 3A) (Cai et al., 2013). Slices are prepared from the four groups described in Experiment A. Anpirtoline (501.1M) is bath applied for 60 min, followed by a 90 min washout period. In specific embodiments, anpirtoline potentiation of […], vehicle-injected controls and that injection of alpha5 GABA-NAM […], but has no effect in control rats (see FIG. 3B).

For Cc1cc(-c2nncc3c(C(C)(C)C)c(OCc4ncnn4C)nn23)no1 [MRK-016, 3-tert-Butyl-7-(5-methylisooxazol-3-yl)-2-(1-methyl-1H-1,2,4-triazol-5-ylmethoxy)-pyrazolo[1,5-d]-[1,2,4] triazine], the “persistence of effect on sucrose preference” value ([1]; CRS continued) was 7 days, the sucrose preference ([1]; CRS, 24 hours after treatment, vs baseline) was “not significantly different than the baseline before stress exposure” and the social interaction scores ([2]; CRS, 24 hours after treatment, vs pre-stress) was “not significantly different than the pre-stress condition”. For the same molecule, the “persistence of effect on social interaction” value ([2]; despite further stress exposure) was 7 days.

In the case of CNC1(c2ccccc2Cl)CCCCC1=O (stereo not drawn) [ketamine], the “time to restoration of sucrose preference and novelty suppressed feeding behaviors” value [3] is listed as 24 h, the “persistence of antidepressant effects” value [4] is listed as “up to two weeks” and the “time to improved mood and reduced depressive symptoms” value [4] is listed as 1 to 2 h.

In the case of Clc1cccc(SC2CCNCC2)n1 [anpirtoline], the “persistence of potentiation after washout” value (TA-CA1 synapses) is reported as greater than 60 min and the “potentiation of TA-CA1 EPSP slope” value (TA-CA1 synapses; vs control slices) is reported as “larger”.
